From patent publication US6846637B1, “Fas peptides and antibodies for modulating apoptosis” (IMED AB, priority 1998, dated 2005) come the findings set out here.

Experiment [1] deals with antibodies in human sera of healthy blood donors. Put plainly: ELISA reactivity of human serum to Fas peptides. Format: binding. The conditions noted are these: for Reactivity to Fas peptides in ELISA, Human serum: O.D. 490 nm classes; for reactivity with human sera: sera of 30 healthy blood donors, in words. The text has this:
The derived amino acid sequence (a.a.1-179) of the Fas protein (Itoh et al., 1991) was used for simultaneous multiple solid-phase peptide synthesis (Houghten et al, 1985) of 20 amino acid long peptides (with a 10-residue overlap).
(In general: An ELISA detects its analyte on a solid surface through an enzyme-linked reagent.)

Experiment [2] has as its system immunoglobulin preparations derived from pooled human serum (Gammagard). Nature of the experiment: ELISA reactivity of immunoglobulin preparations (Gammagard) to Fas peptides. Format: binding. The conditions noted are these: O.D. 490 nm classes. As for the experimental part:
Similar experiments were performed with commercially available immunoglobulin preparations derived from pooled human serum enriched by immunosorbence for immunoglobulin fractions (Gammagard-Baxter, Hyland, Glendale, Calif. USA).

Experiment [3] has as its target Fas peptide Fp11 (Glu100-Cys119) (human). Nature of the experiment: peptide ELISA; legend: +++ > 1.0 O.D.
In experiment [4] the target is Fas peptide Fp5 (Gly40-Val59) (human). Put plainly: peptide ELISA; legend: + = <0.5 O.D. 490 nm.
In experiment [5] the target is Fas peptide Fp17 (Trp160-Val179) (human). Nature of the experiment: peptide ELISA; legend: + = <0.5 O.D. 490 nm.
For experiment [6], the system named is PHA-stimulated T cell blasts. Put plainly: Proliferation of PHA-stimulated T-cell blasts (Alamar Blue). Type of experiment: cell-based, human. The conditions noted are these: anti-CD3 alone. The method, then:
PBMC were stimulated with phytohemagglutinin (PHA) ([…]) (Pharmacia Biotech, Sweden) for 48 hours. […] After 48 hours incubation, the proliferation was assessed by Alamar Blue Assay (Biosource International, USA.) and the results were expressed as percent difference in reduction of (fluorometric/colorometric) REDOX indicator between antibody coated and control (without antibodies) wells according to manufacturer's instructions (AMS Biotechnology AB, Sweden).
(In general: The colour change of resazurin is a common sign of viable cells or microbes.)

Experiment [7] deals with Jurkat leukemia T cells. Nature of the experiment: TUNEL assay of apoptosis of Jurkat cells on immobilized anti-Fas peptide antibodies. Type of experiment: cell-based, human. The conditions noted are these: immobilized antibody, 48 h, TUNEL/FACS; control well 18%. As for the experimental part: The antibody-concentrations were anti-Fp5 (10 μg/ml), anti-Fp11 (10 μg/ml) and anti-Fpl7 (40 μg/ml). Cells were collected after 48 h incubation, and the fragmented DNA of apoptotic cells was assessed by Apoptosis Detection System, Fluorescein (Promega, Madison, Wis.) based on TdT-mediated dUTP Nick-End Labeling (TUNEL) assay and FACS analysis (CellQuest software, Becton Dickinson) according to manufacturer's instructions. For apoptosis inhibition experiments, Jurkat cell culture medium was supplemented with 200 ng/ml of recombinant Fas-Fc chimera (R&D Systems Europe Ltd, Abingdon, UK). Inhibition of CH-11-mediated apoptosis was performed as described in Fadeel et al., 1997. Data are presented as the mean value of four independent experiments, and the standard error of mean is indicated by the error bars.
Ability to mediate apoptosis and inhibition of proliferation was determined using antibodies immobilized to plastic surface.

Fas peptide Fp11 (Glu100-Cys119) (human), sequence (peptide, as listed by the source): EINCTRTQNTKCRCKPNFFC

KCRCKPNFFCNSTVCEHCDP [Fp12]: the “Reactivity to Fas peptides in ELISA, Human serum” value (from here on “Reactivity … Human serum”) in experiment [1] is reported as “++ (++ = <1.0 O.D.)”. Further, the “Reactivity to Fas peptides in ELISA, Immunoglobulin preparations (Gammagard)” value (“Reactivity to Fas peptides … (Gammagard)” for short) in experiment [2] is listed as “++ (++ = <1.0 O.D.)”.

As for HFSSKCRRCRLCDEGHGLEV [Fp9], in experiment [2], the “Reactivity to Fas peptides … (Gammagard)” value was “++ (++ = <1.0 O.D.)”.

Consider LIVWVKRKEVQKTCRKHRKE [Fp18], for which the “Reactivity to Fas peptides … (Gammagard)” value in experiment [2] is listed as “+++ (+++ > 1.0 O.D.)”.

Consider “Immunoglobulin preparations (Gammagard) (antibody)”, for which the O.D. 490 nm was above 1 od in experiment [3], below 0.5 od in experiment [4] and below 0.5 od in experiment [5].

WLCLLLLPIPLIVWVKRKEV [Fp17]: the “serum titers against peptide” value in experiment [1] (30 healthy donors, comparison of Fp5, Fp11, Fp17) is reported as “lowest mean titers”. Further, in experiment [1], the “Reactivity … Human serum” value is recorded as “+++ (+++ > 1.0 O.D.)” and the “reactivity with human sera” value is on record as “reactive”. For the same substance, the “Reactivity to Fas peptides … (Gammagard)” value in experiment [2] is reported as “+ (+ = <0.5 O.D. 490 nm)”.

In experiment [6], “anti-CD3: purified anti-CD3 monoclonal antibody (OKT-3, 10 μg/ml)” came in with a reduction of proliferation of 12%.

KEEGSRSNLGWLCLLLLPIP [Fp16]: the “reactivity with human sera” value in experiment [1] is given as “low or no reactivity”. In addition, in experiment [2], the “Reactivity to Fas peptides … (Gammagard)” value is on record as “+ (+ = <0.5 O.D. 490 nm)”.

With QEGKEYTDKAHFSSKCRRCR [Fp8], in experiment [2], the “Reactivity to Fas peptides … (Gammagard)” value is recorded as “+++ (+++ > 1.0 O.D.)”.

Consider GQFCHKPCPPGERKARDCTV [Fp5], for which, in experiment [1], the “Reactivity … Human serum” value is reported as “++ (++ = <1.0 O.D.)” and the “reactivity with human sera” value was “reactive”. The “apoptosis induced in Jurkat leukemia cells” value in experiment [7] is on record as 25%. The “Reactivity to Fas peptides … (Gammagard)” value in experiment [2] was “+ (+ = <0.5 O.D. 490 nm)”.
